Laboratory results published in patent publication US6902881B2, “Compounds and methods for regulating cell differentiation” (priority 2000, dated 2005).

How the values were obtained:
[1] = Photo transformation of biliverdin by UV irradiation of embryos (HPLC peak area); assay type: physicochemical, Xenopus laevis
Protocol: The cytoplasmic yolk platelet fraction that was photo transformed by UV light was identified in extracts of about 250 embryos irradiated with 366 nm UV light. The chromatogram of irradiated embryo extracts was compared to that of the non-irradiated ones to identify the photo transformed fraction. Once the retention time of the UV sensitive fraction was determined, the parent chemical species was isolated from control egg extracts. To confirm its UV sensitivity, an aliquot of the pertinent HPLC fraction in 44% acetonitrile and 3 mM ammonium acetate, pH 4.5, was irradiated in a cuvette in a Varian-Cary Bio 50 spectrophotometer at 366 nm. The pH was chosen to approximate that of intact yolk platelets. The wavelength was selected on the basis of the absorption spectra of the target fraction. The absorbance change was monitored at 375 nm. […]
After UV irradiation, a set of embryos from each group were collected, dejellied with 2% L-cysteine, 0.16M NaOH and washed extensively in 20% Steimberg's buffer. […] The bilins and retinoids in each batch were extracted, separated and analyzed as described. […] The gross morphological appearance of each individual embryo was evaluated by light microscopy. The developmental teratology characteristic of the “UV syndrome,” was scored by standard criteria and categorized into the five groups comprising the “index of axis deficiency”. […]

[2] = test system: liposarcoma (LS) cells; experiment: Proliferation of liposarcoma cells; assay type: cell-based, human
[3] = test system: retinoid signaling system (RAR or RXR); experiment: Use of the retinoid signaling system
[4] = biological target: T1, peroxisome proliferator-activated receptor (PPARγ) system (Homo sapiens, UniProt P37231); experiment: Use of the peroxisome proliferator-activated receptor system
T1 sequence (P37231 1-505): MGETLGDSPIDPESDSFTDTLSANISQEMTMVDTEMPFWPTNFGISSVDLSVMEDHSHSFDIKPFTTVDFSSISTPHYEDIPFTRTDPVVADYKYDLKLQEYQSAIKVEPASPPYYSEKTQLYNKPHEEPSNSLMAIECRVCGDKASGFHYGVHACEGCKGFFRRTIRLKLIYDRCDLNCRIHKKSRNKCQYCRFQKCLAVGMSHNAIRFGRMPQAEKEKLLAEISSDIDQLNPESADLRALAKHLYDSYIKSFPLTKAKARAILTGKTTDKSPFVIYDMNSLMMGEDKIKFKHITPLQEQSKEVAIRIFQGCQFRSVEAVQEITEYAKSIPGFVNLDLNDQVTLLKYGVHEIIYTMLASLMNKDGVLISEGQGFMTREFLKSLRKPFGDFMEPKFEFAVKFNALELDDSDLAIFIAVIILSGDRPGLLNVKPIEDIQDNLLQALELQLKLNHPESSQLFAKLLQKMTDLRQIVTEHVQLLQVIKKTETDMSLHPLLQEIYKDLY

[5] = biological target: T2, aryl hydrocarbon receptor (AhR) (Homo sapiens, UniProt P35869); details: μM range / concentrations used here (Phelan 1998); cited from earlier work
T2 sequence (P35869 11-848): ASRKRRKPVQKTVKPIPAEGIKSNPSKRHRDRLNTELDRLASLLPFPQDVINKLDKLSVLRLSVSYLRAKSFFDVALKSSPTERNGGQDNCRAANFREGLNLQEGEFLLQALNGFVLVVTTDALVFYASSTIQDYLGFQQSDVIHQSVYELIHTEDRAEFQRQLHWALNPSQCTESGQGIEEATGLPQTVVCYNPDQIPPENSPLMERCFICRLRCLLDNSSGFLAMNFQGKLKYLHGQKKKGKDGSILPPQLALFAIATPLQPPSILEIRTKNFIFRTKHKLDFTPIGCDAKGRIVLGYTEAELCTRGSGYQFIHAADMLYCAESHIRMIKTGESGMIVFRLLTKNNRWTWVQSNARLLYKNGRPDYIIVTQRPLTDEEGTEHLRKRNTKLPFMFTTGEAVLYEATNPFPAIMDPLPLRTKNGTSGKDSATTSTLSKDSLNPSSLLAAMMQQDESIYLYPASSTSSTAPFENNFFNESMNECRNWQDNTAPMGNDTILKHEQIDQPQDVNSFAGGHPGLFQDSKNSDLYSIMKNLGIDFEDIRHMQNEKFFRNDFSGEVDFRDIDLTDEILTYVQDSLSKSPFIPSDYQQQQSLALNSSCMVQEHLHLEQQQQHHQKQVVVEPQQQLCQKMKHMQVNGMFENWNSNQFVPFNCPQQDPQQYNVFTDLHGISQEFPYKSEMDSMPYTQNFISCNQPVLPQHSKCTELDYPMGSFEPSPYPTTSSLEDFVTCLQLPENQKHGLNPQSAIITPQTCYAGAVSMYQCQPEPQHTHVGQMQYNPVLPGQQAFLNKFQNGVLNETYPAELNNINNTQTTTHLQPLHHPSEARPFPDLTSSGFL

share of the 23.3 min peak area photo transformed by UV irradiation ([1]; embryos irradiated with 366 nm UV light, typical experiment): > 67%
decrease of content after UV irradiation ([1]; pre-cleavage embryos exposed to 358 nm for 10 min): 50%
use of the PPARγ system [4]: does not use
SMILES: C=CC1=C(C)/C(=C/C2=NC(=C\c3[nH]c(/C=C4\NC(=O)C(C)=C4C=C)c(C)c3CCC(=O)O)/C(CCC(=O)O)=C2C)NC1=O [Biliverdin, biliverdin IXα]
day after which division resumes at markedly reduced rate [2]: > 3 days
division slower than control [2]: 3.3 times
time until proliferation ceases [2]: within one day
use of the retinoid signaling system (RAR or RXR) [3]: does not use
activation of the aryl hydrocarbon receptor [5]: binds and is activated
